According to patent publication US20120316186A1, “DEAZAPURINES USEFUL AS INHIBITORS OF JANUS KINASES” (priority 2006, published 2012):

Columns and labels:
JAK3 = target: T1, JAK3 (Homo sapiens, UniProt P52333); assay: JAK3 Inhibition Assay; type: biochemical; details: 1 μM poly(Glu)4Tyr, 5 μM ATP, 1 nM JAK3, 25° C.; read-out: JAK3 enzyme inhibition data (Ki)
T1 sequence (P52333 1-1124): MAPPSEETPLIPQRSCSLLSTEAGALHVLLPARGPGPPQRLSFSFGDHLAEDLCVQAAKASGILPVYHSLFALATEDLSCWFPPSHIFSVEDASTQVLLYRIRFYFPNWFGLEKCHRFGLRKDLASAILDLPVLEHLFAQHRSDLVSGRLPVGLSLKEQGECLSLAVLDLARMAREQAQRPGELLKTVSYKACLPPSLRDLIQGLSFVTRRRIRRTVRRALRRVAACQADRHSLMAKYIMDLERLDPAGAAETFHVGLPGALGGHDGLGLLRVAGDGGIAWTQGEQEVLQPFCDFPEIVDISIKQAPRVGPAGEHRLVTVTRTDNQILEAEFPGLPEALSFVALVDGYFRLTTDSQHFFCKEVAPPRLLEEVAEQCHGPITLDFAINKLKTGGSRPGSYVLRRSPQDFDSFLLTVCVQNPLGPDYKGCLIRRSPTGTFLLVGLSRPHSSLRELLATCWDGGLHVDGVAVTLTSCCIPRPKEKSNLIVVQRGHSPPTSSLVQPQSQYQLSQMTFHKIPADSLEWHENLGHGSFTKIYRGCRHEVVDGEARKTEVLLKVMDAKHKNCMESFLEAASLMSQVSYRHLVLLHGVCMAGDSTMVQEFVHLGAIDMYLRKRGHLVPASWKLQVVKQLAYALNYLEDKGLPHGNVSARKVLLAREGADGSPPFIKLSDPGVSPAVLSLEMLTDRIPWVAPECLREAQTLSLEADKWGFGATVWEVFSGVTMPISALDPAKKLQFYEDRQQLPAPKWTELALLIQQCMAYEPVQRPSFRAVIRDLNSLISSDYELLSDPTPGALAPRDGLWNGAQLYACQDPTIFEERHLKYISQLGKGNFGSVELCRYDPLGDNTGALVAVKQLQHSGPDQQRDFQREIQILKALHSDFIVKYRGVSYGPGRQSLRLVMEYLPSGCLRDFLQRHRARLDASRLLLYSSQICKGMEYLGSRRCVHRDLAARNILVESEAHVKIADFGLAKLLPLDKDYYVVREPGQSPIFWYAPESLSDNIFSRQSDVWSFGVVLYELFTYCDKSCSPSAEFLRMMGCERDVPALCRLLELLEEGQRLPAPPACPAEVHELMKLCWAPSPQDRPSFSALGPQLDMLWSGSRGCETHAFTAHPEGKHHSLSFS
Protocol: (§1) Compounds were screened for their ability to inhibit JAK3 using the assay shown below. Reactions were carried out in a kinase buffer containing 100 mM HEPES (pH 7.4), 1 mM DTT, 10 mM MgCl2, 25 mM NaCl, and 0.01% BSA. Substrate concentrations in the assay were 5 μM ATP (200 uCi/μmole ATP) and 1 μM poly(Glu)4Tyr. Reactions were carried out at 25° C. and 1 nM JAK3.
(§2) To each well of a 96 well polycarbonate plate was added 1.5 μl of a candidate JAK3 inhibitor along with 50 μl of kinase buffer containing 2 μM poly(Glu)4Tyr and 10 μM ATP. This was then mixed and 50 μl of kinase buffer containing 2 nM JAK3 enzyme was added to start the reaction. After 20 minutes at room temperature (25° C.), the reaction was stopped with 50 μl of 20% trichloroacetic acid (TCA) that also contained 0.4 mM ATP. The entire contents of each well were then transferred to a 96 well glass fiber filter plate using a TomTek Cell Harvester. After washing, 60 μl of scintillation fluid was added and ^33P incorporation detected on a Perkin Elmer TopCount.

JAK2 = JAK2 (Homo sapiens, UniProt O60674); assay: JAK2 Inhibition Assay; type: biochemical; details: 15 μM poly(Glu)4Tyr, 12 μM ATP; read-out: JAK2 enzyme inhibition data (Ki)
Protocol: as §1, §2
The assays were as described above in Example 36 except that JAK-2 enzyme was used, the final poly(Glu)4Tyr concentration was 15 μM, and final ATP concentration was 12 μM.

Sequence of JAK2 (O60674 whole entry): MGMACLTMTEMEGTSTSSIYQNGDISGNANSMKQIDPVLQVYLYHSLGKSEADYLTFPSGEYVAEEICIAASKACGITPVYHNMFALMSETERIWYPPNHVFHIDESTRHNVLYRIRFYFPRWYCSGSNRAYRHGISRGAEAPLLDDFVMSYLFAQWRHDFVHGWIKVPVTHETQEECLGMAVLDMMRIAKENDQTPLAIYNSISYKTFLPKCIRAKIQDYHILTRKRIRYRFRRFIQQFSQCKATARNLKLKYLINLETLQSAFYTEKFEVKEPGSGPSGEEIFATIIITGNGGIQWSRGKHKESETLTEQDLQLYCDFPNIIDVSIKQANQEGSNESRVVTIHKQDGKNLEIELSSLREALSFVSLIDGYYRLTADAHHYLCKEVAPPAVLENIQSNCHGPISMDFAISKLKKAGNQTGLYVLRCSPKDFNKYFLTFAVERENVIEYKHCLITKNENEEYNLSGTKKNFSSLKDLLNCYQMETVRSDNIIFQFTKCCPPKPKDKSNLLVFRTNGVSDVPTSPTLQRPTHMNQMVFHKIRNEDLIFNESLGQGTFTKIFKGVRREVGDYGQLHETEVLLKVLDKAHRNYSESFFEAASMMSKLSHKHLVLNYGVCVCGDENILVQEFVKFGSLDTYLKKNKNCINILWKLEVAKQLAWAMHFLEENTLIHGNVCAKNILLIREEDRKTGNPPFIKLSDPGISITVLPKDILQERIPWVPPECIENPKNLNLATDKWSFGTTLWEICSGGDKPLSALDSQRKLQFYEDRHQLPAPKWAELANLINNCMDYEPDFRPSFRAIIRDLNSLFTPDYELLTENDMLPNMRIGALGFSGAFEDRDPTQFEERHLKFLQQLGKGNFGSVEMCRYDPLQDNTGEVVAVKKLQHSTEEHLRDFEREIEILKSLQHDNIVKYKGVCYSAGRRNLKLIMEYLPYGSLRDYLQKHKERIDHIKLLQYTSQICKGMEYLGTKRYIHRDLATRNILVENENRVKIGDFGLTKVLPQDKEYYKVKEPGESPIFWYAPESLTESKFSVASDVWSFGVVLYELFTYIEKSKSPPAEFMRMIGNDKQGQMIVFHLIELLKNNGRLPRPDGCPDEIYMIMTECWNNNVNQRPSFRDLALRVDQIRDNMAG

Ki (JAK3) [nM] | Ki (JAK2) [nM] | Compound
< 100 | < 100 | O=C(c1cc(-c2ncnc3[nH]ccc23)c[nH]1)N(CCC(F)(F)F)CC1CC1 [Compound 110]
100 to 500 | 100 to 500 | O=C(O)CC1(CC(=O)Nc2nc(-c3ncnc4[nH]ccc34)cs2)CCCC1 [Compound 143]
100 to 500 | < 100 | O=C(Cc1ccccc1F)Nc1nc(-c2ncnc3[nH]ccc23)cs1 [Compound 156]
100 to 500 | < 100 | CC(CC(=O)Nc1nc(-c2ncnc3[nH]ccc23)cs1)CC(C)(C)C (centres unmarked) [Compound 33]
< 100 | < 100 | O=C(Nc1nc(-c2ncnc3[nH]ccc23)cs1)C1CCCOC1 (centres unmarked) [Compound 61]
100 to 500 | 100 to 500 | O=C(O)C1CCCCC1C(=O)Nc1nc(-c2ncnc3[nH]ccc23)cs1 (centres unmarked) [Compound 144]
100 to 500 | < 100 | N#CCCN(C(=O)c1cc(-c2ncnc3[nH]ccc23)c[nH]1)C1CCCC1 [Compound 139]
